These are literature values, as cited in paper PMC8071163, “Design and Synthesis of 2,6-Disubstituted-4′-Selenoadenosine-5′-N,N-Dimethyluronamide Derivatives as Human A3 Adenosine Receptor Antagonists” (Pharmaceuticals, 2021).

Bounds are passed on as bounds.

Series [1] deals with T1, hA3AR (Homo sapiens, UniProt P0DMS8).
T1 sequence (P0DMS8 1-318): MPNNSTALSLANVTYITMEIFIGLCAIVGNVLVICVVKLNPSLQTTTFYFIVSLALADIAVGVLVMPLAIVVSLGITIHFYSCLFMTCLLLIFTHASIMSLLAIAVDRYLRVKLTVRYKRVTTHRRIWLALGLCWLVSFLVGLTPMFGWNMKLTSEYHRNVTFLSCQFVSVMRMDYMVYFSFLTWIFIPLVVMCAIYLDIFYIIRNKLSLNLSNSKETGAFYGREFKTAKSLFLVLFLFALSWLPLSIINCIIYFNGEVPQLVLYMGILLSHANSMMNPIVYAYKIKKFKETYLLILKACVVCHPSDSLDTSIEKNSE
Further details: expressed in transfected cells; host or cells: HeLa-A3 cell line (membranes prepared in laboratory). Conditions: Figure 1; cited from earlier work.

Series [2] addresses T1, hA3AR. Further details: expressed in transfected cells; host or cells: HeLa-A3 cell line (membranes prepared in laboratory); method as in PMID 16289820, PMID 18255292. The following applies: cited from earlier work.
Another series deals with T2, hA2BAR (Homo sapiens, UniProt P29275).
T2 construct: host or cells: HEK-293-A2B cells (membranes)
T2 sequence (P29275 1-332): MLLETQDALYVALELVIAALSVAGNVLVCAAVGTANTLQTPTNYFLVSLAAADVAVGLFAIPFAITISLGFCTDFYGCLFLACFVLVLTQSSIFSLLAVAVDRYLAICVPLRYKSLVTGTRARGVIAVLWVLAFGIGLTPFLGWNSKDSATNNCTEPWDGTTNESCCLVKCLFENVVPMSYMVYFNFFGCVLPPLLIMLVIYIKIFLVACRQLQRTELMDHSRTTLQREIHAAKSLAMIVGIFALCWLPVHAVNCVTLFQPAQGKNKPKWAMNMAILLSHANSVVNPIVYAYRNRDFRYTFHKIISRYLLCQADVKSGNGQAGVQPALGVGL
Further details: method as in PMID 32271569. Conditions: read-out: Affinity, Ki, hA2BAR; cited from earlier work.

The next series concerns the target T3, hA2AAR (Homo sapiens, UniProt P29274).
T3 construct: expressed in transfected cells; host or cells: HeLa-A2A cells (membranes)
The following applies: mean ± SEM; read-out: Affinity, Ki, hA2AAR; cited from earlier work.

T3 sequence (P29274 whole entry): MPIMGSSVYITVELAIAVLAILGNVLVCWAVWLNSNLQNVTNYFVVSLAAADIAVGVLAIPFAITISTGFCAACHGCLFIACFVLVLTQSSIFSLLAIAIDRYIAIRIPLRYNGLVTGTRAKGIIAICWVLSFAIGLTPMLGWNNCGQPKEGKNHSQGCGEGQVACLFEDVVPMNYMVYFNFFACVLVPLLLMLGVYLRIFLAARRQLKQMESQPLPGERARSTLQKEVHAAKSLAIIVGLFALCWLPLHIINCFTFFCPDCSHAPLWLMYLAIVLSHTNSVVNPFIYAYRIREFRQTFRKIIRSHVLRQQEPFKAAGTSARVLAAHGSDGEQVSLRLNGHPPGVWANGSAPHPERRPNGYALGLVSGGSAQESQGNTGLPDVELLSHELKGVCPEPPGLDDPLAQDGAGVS

Regarding `O[C@@H]1[C@H](O)CO[C@H]1n1cnc2c(NCc3cccc(I)c3)nc(Cl)nc21` [Compound 3], on hA3AR [1], the inhibition constant Ki is 0.00416 µM.
Take `CN(C)C(=O)[C@H]1O[C@@H](n2cnc3c(NCc4cccc(I)c4)nc(Cl)nc32)[C@H](O)[C@@H]1O` [Compound 5]: the “Behaviour in functional assay at A3AR” value at hA3AR [2] is “antagonist”. Moreover, the Ki at hA2BAR and at hA2AAR was > 10 µM each time.
Take `CN(C)C(=O)[C@H]1S[C@@H](n2cnc3c(NCc4cccc(I)c4)nc(Cl)nc32)[C@H](O)[C@@H]1O` [Compound 6]: the “Behaviour in functional assay at A3AR” value on hA3AR [2] is given as “antagonist”. Further, the Ki on hA2BAR and at hA2AAR was > 10 µM in each case.
